Data on eleven compounds can be found in PubChem BioAssay AID342 (DTP/NCI, 2004).

The term T/C denotes the ratio of treated to control.

“And” between values parts separate entries of the source, which are not always exact repeats. Equal entries are not always repeated.

In the assay the test system is Swiss mice, Sarcoma 180 sc, mean tumor weight T/C. The assay is described as follows: NCI In Vivo Anticancer Drug Screen. Data for tumor model Sarcoma 180 (subcutaneous) in Swiss mice. Conditions: endpoint: mean tumor weight, higher = larger tumour. As to the method:
The antitumor activity of compounds was measured in mice bearing transplantable tumors. Survival or tumor size were measured and the results are expressed as the measurement made in the treated group (T) divided by the measurement made in the vehicle treated control group (C). The tumor model used in this assay is Sarcoma 180 (subcutaneous) in Swiss mice

Where [1] appears, read: dose: 500.0 mg/kg/injection, schedule: Q01DX007 (sc), vehicle: steriod suspending solution.
Setting [2] is: dose: 100.0 mg/kg/injection, schedule: Q01DX007 (ip), vehicle: saline.

In the case of `O=C(O)CCC(=O)CCl`, the T/C is, setting by setting: (dose: 6.2 mg/kg/injection, schedule: Q01DX007 (ip), vehicle: saline) 76 % of control; (dose: 9.3 mg/kg/injection, schedule: Q01DX007 (ip), vehicle: saline) 57 % of control; (dose: 14.0 mg/kg/injection, schedule: Q01DX007 (ip), vehicle: saline) 57 % of control; (dose: 21.0 mg/kg/injection, schedule: Q01DX007 (ip), vehicle: saline) 46 % of control and 55 % of control; (dose: 30.0 mg/kg/injection, schedule: Q01DX007 (ip), vehicle: saline) 31 % of control.
As to `NNC(=O)CCC(N)C(=O)O` (stereo not drawn), the T/C reads like this: (dose: 5.75 mg/kg/injection, schedule: Q#A X014 (ip), vehicle: carboxymethylcellulose (CMC)) 97 % of control; (dose: 11.5 mg/kg/injection, schedule: Q#A X014 (ip), vehicle: carboxymethylcellulose (CMC)) 90 % of control; (dose: 23.0 mg/kg/injection, schedule: Q#A X014 (ip), vehicle: carboxymethylcellulose (CMC)) 118 % of control; (dose: 46.0 mg/kg/injection, schedule: Q#A X014 (ip), vehicle: carboxymethylcellulose (CMC)) 70 % of control.
Take `O=C(N/N=C/C=C/c1ccccc1)[C@H](O)[C@@H](O)C(=O)N/N=C/C=C/c1ccccc1`: the T/C (dose: 111.0 mg/kg/injection, schedule: Q#A X014 (ip), vehicle: saline) was 57 % of control; the T/C (dose: 166.5 mg/kg/injection, schedule: Q#A X014 (ip), vehicle: saline) is 40 % of control; the T/C (dose: 250.0 mg/kg/injection, schedule: Q#A X014 (ip), vehicle: saline) was 57 % of control.
`CC(=O)[C@H]1[C@H](C)C[C@H]2[C@@H]3CCC4=CC(=O)CC[C@]4(C)[C@@]3(F)[C@@H](O)C[C@@]21C`: the T/C is, setting by setting: (dose: 3.0 mg/kg/injection, schedule: Q01DX007 (sc), vehicle: steriod suspending solution) 87 % of control; (dose: 6.1 mg/kg/injection, schedule: Q01DX007 (sc), vehicle: steriod suspending solution) 63 % of control; (dose: 12.5 mg/kg/injection, schedule: Q01DX007 (sc), vehicle: steriod suspending solution) 47 % of control; (dose: 25.0 mg/kg/injection, schedule: Q01DX007 (sc), vehicle: steriod suspending solution) 44 % of control; (dose: 47.0 mg/kg/injection, schedule: Q01DX007 (sc), vehicle: steriod suspending solution) 13 % of control; (dose: 94.0 mg/kg/injection, schedule: Q01DX007 (sc), vehicle: steriod suspending solution) 26 % of control. Also, the T/C is 29 % of control and 31 % of control and 33 % of control (dose: 187.5 mg/kg/injection, schedule: Q#A X014 (sc), vehicle: steriod suspending solution); 22 % of control and 28 % of control and 42 % of control (dose: 281.25 mg/kg/injection, schedule: Q#A X014 (sc), vehicle: steriod suspending solution); 25 % of control under setting [1]; 36 % of control (dose: 562.0 mg/kg/injection, schedule: Q01DX007 (sc), vehicle: steriod suspending solution); 20 % of control (dose: 600.0 mg/kg/injection, schedule: Q01DX007 (sc), vehicle: steriod suspending solution); 28 % of control (dose: 700.0 mg/kg/injection, schedule: Q01DX007 (sc), vehicle: steriod suspending solution). For the same compound, the T/C is 16 % of control (dose: 800.0 mg/kg/injection, schedule: Q01DX007 (sc), vehicle: steriod suspending solution); 21 % of control (dose: 843.0 mg/kg/injection, schedule: Q01DX007 (sc), vehicle: steriod suspending solution); 29 % of control (dose: 1265.0 mg/kg/injection, schedule: Q01DX007 (sc), vehicle: steriod suspending solution); 24 % of control (dose: 1890.0 mg/kg/injection, schedule: Q01DX007 (sc), vehicle: steriod suspending solution).
Take `CCC(CC)C(O)CCCN(C)C` (stereo not drawn): the T/C under setting [2] is 103 % of control; the T/C (dose: 200.0 mg/kg/injection, schedule: Q01DX007 (ip), vehicle: saline) is 95 % of control; the T/C (dose: 400.0 mg/kg/injection, schedule: Q01DX007 (ip), vehicle: saline) was 75 % of control.
On to `CCC(=O)O[C@H]1CC[C@H]2[C@@H]3CC[C@H]4CC(=O)[C@H](C)C[C@]4(C)[C@H]3CC[C@]12C`, for which the T/C by setting is: (dose: 125.0 mg/kg/injection, schedule: Q01DX007 (sc), vehicle: steriod suspending solution) 77 % of control; (dose: 250.0 mg/kg/injection, schedule: Q01DX007 (sc), vehicle: steriod suspending solution) 101 % of control; under setting [1], 121 % of control; (dose: 1000.0 mg/kg/injection, schedule: Q01DX007 (sc), vehicle: steriod suspending solution) 62 % of control.
On to `Cc1cc2nc3c(=O)[nH]c(=O)nc-3n(CCO)c2cc1C`, for which the T/C was 78 % of control (dose: 60.0 mg/kg/injection, schedule: Q#A X014 (ip), vehicle: carboxymethylcellulose (CMC)); 77 % of control (dose: 120.0 mg/kg/injection, schedule: Q#A X014 (ip), vehicle: carboxymethylcellulose (CMC)); 76 % of control (dose: 240.0 mg/kg/injection, schedule: Q#A X014 (ip), vehicle: carboxymethylcellulose (CMC)); 61 % of control (dose: 384.0 mg/kg/injection, schedule: Q01DX007 (ip), vehicle: carboxymethylcellulose (CMC)); 62 % of control (dose: 480.0 mg/kg/injection, schedule: Q01DX007 (ip), vehicle: carboxymethylcellulose (CMC)); 40 % of control (dose: 480.0 mg/kg/injection, schedule: Q#A X014 (ip), vehicle: carboxymethylcellulose (CMC)). Further, the T/C by setting is: (dose: 640.0 mg/kg/injection, schedule: Q01DX007 (ip), vehicle: carboxymethylcellulose (CMC)) 82 % of control; (dose: 960.0 mg/kg/injection, schedule: Q01DX007 (ip), vehicle: carboxymethylcellulose (CMC)) 66 % of control.
Turning to `CN1CCc2cc3c(cc2C(=O)Cc2ccc4c(c2C1)OCO4)OCO3`, the T/C was 109 % of control (dose: 1.56 mg/kg/injection, schedule: Q01DX007 (ip), vehicle: saline); 69 % of control (dose: 3.13 mg/kg/injection, schedule: Q01DX007 (ip), vehicle: saline); 119 % of control (dose: 6.25 mg/kg/injection, schedule: Q01DX007 (ip), vehicle: saline); 60 % of control (dose: 25.0 mg/kg/injection, schedule: Q01DX007 (ip), vehicle: saline); 64 % of control (dose: 50.0 mg/kg/injection, schedule: Q01DX007 (ip), vehicle: saline); 79 % of control (dose: 62.0 mg/kg/injection, schedule: Q01DX007 (ip), vehicle: carboxymethylcellulose (CMC)). Further, the T/C under setting [2] was 80 % of control.
For the compound `CCOC(=O)CCc1ccc(N=NN2CCCC2)cc1`, the T/C by setting is: (dose: 225.0 mg/kg/injection, schedule: Q01DX007 (ip), vehicle: carboxymethylcellulose (CMC)) 110 % of control; (dose: 450.0 mg/kg/injection, schedule: Q01DX007 (ip), vehicle: carboxymethylcellulose (CMC)) 95 % of control.
For `CC1(C)OCC(C(OC(=O)c2ccccc2)C(OC2CCCCO2)C2COC(C)(C)O2)O1` (stereo not drawn), the T/C was 90 % of control (dose: 62.5 mg/kg/injection, schedule: Q01DX007 (ip), vehicle: carboxymethylcellulose (CMC)); 86 % of control (dose: 125.0 mg/kg/injection, schedule: Q01DX007 (ip), vehicle: carboxymethylcellulose (CMC)); 100 % of control (dose: 250.0 mg/kg/injection, schedule: Q01DX007 (ip), vehicle: carboxymethylcellulose (CMC)).
Take `COc1ccc2[nH]c3c(C)c4ccncc4c(C)c3c2c1`: the T/C runs as follows: (dose: 6.2 mg/kg/injection, schedule: Q01DX007 (ip), vehicle: carboxymethylcellulose (CMC)) 81 % of control; (dose: 12.5 mg/kg/injection, schedule: Q01DX007 (ip), vehicle: carboxymethylcellulose (CMC)) 77 % of control; (dose: 25.0 mg/kg/injection, schedule: Q01DX007 (ip), vehicle: carboxymethylcellulose (CMC)) 33 % of control; (dose: 27.0 mg/kg/injection, schedule: Q01DX007 (ip), vehicle: saline) 72 % of control; (dose: 40.0 mg/kg/injection, schedule: Q01DX007 (ip), vehicle: saline) 88 % of control; (dose: 50.0 mg/kg/injection, schedule: Q01DX007 (ip), vehicle: carboxymethylcellulose (CMC)) 27 % of control. The T/C is 97 % of control (dose: 50.0 mg/kg/injection, schedule: Q01DX007 (ip), vehicle: steriod suspending solution); 50 % of control (dose: 60.0 mg/kg/injection, schedule: Q01DX007 (ip), vehicle: saline); 25 % of control (dose: 75.0 mg/kg/injection, schedule: Q01DX007 (ip), vehicle: carboxymethylcellulose (CMC)); 46 % of control (dose: 75.0 mg/kg/injection, schedule: Q01DX007 (ip), vehicle: steriod suspending solution); 24 % of control (dose: 90.0 mg/kg/injection, schedule: Q01DX007 (ip), vehicle: saline); 19 % of control (dose: 150.0 mg/kg/injection, schedule: Q01DX007 (ip), vehicle: carboxymethylcellulose (CMC)). The T/C (dose: 150.0 mg/kg/injection, schedule: Q01DX007 (ip), vehicle: steriod suspending solution) is 31 % of control.
